Experimental data as given in patent US8211935B2, “Heterocyclic derivatives for modulation of calcium channels” (Vertex Pharmaceuticals Incorporated, priority 2004, dated 2012).
Read-outs that look alike come from different tables or passages of the source.

Biological target: T1, CaV2.2 (Homo sapiens, UniProt Q00975)
T1 construct: expressed in transfected cells; host or cells: HEK293
Assay: VIPR optical membrane potential assay with electrical stimulation
Format: cell-based
How it was run: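 HEK293 cells stably expressing CaV2.2, stained with CC2-DMPE (10 μM final) and oxonol voltage-sensitive dyes, compound added with BaCl2. Membrane potential response evoked by 3-5 s electrical stimulation. Read as background-subtracted 460/580 nm emission ratio, response R=Rf/Ri, normalized to mibefradil positive and no-drug negative controls.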

[1] = Table 3, biological assay data, read-out: IC50

T1 sequence (Q00975 whole entry): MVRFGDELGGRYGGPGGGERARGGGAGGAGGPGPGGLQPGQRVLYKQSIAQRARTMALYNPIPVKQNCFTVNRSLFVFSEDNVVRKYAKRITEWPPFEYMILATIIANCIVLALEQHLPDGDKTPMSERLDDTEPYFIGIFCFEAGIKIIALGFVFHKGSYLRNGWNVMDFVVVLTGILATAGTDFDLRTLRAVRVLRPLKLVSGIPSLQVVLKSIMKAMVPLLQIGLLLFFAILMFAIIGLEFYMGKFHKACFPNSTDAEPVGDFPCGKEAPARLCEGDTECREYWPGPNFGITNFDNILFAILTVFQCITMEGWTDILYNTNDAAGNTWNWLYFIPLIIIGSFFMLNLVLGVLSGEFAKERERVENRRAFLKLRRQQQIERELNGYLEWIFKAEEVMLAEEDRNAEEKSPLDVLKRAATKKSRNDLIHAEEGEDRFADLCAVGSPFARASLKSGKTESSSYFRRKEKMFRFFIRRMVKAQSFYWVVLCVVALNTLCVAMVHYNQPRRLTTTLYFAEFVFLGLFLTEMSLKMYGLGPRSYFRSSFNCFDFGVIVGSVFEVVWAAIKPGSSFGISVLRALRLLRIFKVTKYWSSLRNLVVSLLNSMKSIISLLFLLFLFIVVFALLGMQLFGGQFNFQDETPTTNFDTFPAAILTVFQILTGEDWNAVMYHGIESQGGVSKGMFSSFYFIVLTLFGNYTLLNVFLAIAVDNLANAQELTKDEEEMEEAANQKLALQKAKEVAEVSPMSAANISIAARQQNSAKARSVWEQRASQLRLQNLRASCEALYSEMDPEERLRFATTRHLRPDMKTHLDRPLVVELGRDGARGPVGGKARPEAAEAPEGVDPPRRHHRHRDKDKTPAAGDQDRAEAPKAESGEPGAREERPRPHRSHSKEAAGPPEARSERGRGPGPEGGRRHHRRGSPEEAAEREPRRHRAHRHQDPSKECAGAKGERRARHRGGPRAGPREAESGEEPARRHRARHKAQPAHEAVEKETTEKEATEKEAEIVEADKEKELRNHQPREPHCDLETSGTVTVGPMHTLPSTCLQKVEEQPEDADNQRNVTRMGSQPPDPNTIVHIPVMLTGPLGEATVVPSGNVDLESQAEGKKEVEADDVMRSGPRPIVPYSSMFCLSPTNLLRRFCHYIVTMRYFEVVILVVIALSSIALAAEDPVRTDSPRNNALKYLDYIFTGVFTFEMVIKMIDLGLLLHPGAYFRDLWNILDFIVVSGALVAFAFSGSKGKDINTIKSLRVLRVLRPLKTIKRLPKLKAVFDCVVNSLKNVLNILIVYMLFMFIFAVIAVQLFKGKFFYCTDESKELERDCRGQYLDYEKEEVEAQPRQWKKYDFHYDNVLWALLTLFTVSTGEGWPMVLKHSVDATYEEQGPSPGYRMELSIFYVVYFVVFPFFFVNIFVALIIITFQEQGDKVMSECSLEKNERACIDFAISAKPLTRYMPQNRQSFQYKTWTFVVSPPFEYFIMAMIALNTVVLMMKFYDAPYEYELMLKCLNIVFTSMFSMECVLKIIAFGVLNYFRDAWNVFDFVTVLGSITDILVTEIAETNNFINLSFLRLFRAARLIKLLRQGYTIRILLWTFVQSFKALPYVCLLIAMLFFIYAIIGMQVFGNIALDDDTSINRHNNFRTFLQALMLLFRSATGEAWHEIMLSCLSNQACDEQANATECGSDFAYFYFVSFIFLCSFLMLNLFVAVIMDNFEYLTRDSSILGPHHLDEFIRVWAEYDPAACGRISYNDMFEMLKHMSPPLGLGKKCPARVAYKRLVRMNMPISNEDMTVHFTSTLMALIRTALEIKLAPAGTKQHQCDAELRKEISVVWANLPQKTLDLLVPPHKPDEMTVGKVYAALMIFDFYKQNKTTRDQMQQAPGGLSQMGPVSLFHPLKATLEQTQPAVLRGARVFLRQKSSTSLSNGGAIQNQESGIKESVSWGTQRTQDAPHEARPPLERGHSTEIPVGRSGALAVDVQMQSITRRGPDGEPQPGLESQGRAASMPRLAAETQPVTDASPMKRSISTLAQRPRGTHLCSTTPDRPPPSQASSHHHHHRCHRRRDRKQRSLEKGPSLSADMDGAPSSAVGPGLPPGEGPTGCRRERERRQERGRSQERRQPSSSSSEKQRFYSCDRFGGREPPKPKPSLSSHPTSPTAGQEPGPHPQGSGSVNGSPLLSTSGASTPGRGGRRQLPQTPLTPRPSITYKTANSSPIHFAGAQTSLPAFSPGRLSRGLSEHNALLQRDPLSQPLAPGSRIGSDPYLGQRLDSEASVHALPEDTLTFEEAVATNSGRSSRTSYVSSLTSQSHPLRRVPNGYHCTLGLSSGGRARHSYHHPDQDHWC
T1 sequence (P54284 whole entry partner): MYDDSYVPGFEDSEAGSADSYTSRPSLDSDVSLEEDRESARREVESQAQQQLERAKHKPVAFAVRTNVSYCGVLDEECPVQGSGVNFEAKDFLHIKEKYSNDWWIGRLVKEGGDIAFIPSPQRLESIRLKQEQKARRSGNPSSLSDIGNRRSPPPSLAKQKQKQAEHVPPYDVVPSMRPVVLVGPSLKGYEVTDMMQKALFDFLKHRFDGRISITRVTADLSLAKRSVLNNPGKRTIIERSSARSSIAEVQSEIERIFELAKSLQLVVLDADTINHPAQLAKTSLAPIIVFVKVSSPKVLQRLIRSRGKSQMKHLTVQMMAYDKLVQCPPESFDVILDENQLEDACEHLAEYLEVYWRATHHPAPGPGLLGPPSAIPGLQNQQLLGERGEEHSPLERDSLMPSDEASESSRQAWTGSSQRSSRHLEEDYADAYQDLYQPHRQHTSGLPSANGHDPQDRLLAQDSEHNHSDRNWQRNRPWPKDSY
T1 sequence (P54289 25-946 partner limits assumed): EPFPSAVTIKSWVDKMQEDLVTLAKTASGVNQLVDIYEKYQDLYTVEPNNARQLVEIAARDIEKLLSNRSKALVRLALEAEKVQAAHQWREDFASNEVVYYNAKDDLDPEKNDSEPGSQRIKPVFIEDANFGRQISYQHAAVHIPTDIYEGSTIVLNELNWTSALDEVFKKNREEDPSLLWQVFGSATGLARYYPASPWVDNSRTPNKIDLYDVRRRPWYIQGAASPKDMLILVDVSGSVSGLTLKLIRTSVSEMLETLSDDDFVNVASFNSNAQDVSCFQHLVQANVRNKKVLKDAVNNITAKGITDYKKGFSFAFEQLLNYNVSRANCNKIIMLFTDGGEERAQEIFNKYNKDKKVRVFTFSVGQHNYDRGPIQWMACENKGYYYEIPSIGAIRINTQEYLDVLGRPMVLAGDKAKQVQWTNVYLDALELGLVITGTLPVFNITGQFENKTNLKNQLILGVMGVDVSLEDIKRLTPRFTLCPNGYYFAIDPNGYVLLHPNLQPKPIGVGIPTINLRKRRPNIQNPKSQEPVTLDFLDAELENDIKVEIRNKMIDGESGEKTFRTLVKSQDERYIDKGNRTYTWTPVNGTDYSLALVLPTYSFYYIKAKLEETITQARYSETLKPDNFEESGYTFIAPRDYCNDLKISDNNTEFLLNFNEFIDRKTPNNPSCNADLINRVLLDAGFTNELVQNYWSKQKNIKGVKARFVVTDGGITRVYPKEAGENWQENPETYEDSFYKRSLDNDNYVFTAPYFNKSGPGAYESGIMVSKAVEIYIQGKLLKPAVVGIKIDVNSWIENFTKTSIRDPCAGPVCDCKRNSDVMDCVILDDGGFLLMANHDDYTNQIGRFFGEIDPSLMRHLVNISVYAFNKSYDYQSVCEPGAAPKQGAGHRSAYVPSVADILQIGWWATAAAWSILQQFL
T1 sequence (P54289 947-1103 partner limits assumed): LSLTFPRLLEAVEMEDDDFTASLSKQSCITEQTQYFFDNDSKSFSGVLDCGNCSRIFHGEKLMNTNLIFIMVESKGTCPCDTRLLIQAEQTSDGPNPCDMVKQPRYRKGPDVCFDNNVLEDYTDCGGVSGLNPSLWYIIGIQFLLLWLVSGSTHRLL

Structure (SMILES): Cc1c(C(=O)NC2CC2)oc2ccc(S(=O)(=O)Nc3ccc(F)cc3)cc12 [compound 228]
- IC50 [1]: < 20 µM

Structure (SMILES): CCCCN(C)C(=O)c1cc2cc(S(=O)(=O)N3CC(C)CC(C)C3)ccc2o1 (stereo not shown) [compound 229]
- IC50 [1]: < 5 µM

Structure (SMILES): CCN(CC)C(=O)c1cc2cc(S(=O)(=O)N3CC(C)CC(C)C3)ccc2n1CCCN(C)C (stereo not shown) [compound 230]
- IC50 [1]: 5 to 20 µM

Structure (SMILES): CC1CCN(S(=O)(=O)c2ccc3oc(C(=O)N4CCCC4)cc3c2)CC1 [compound 231]
- IC50 [1]: 5 to 20 µM

Structure (SMILES): Cc1c(C(=O)N2CCC3(CC2)OCCO3)[nH]c2ccc(S(=O)(=O)N3CCCCCC3)cc12 [compound 232]
- IC50: 5 to 20 µM

Structure (SMILES): Cc1c(C(=O)N2CC(C)CC(C)C2)oc2ccc(S(=O)(=O)N3CCCC(C)C3)cc12 (stereo not shown) [compound 233]
- IC50 [1]: < 5 µM

Structure (SMILES): CC1CCN(S(=O)(=O)c2ccc3oc(C(=O)NC(C)C)cc3c2)CC1 [compound 234]
- IC50 [1]: < 5 µM

Structure (SMILES): CCOC(=O)N1CCN(C(=O)c2[nH]c3ccc(S(=O)(=O)N4CCCCCC4)cc3c2C)CC1 [compound 235]
- IC50 [1]: 5 to 20 µM

Structure (SMILES): Cc1c(C(=O)N2CCSCC2)oc2ccc(S(=O)(=O)N3CCC(C)CC3)cc12 [compound 236]
- IC50 [1]: 5 to 20 µM

Structure (SMILES): Cc1c(C(=O)NC2CC2)oc2ccc(S(=O)(=O)NCc3ccccc3)cc12 [compound 237]
- IC50 [1]: < 20 µM

Structure (SMILES): Cc1c(C(=O)NCC2CCCO2)oc2ccc(S(=O)(=O)N3CCC(C)CC3)cc12 (stereo not shown) [compound 238]
- IC50 [1]: 5 to 20 µM

Structure (SMILES): Cc1c(C(=O)N2CCCCC2C)[nH]c2ccc(S(=O)(=O)N3CCC(C)CC3)cc12 (stereo not shown) [compound 239]
- IC50 [1]: 5 to 20 µM

Structure (SMILES): CC1CC(C)CN(S(=O)(=O)c2ccc3oc(C(=O)N4CCCCCC4)cc3c2)C1 (stereo not shown) [compound 240]
- IC50 [1]: < 5 µM

Structure (SMILES): CC1CC(C)CN(S(=O)(=O)c2ccc3[nH]c(C(=O)N4CCCCC4C)cc3c2)C1 (stereo not shown) [compound 241]
- IC50 [1]: < 5 µM

Structure (SMILES): Cc1c(C(=O)NCC2CCOCC2)oc2ccc(S(=O)(=O)N3CC(C)CC(C)C3)cc12 (stereo not shown) [compound 242]
- IC50 [1]: < 5 µM

Structure (SMILES): Cc1c(C(=O)N2CC(C)CC(C)C2)oc2ccc(S(=O)(=O)N3CCCCCC3)cc12 (stereo not shown) [compound 243]
- IC50 [1]: 5 to 20 µM

Structure (SMILES): CCN(CC)C(=O)c1cc2cc(S(=O)(=O)N3CCC(C)CC3)ccc2n1C [compound 244]
- IC50 [1]: < 5 µM

Structure (SMILES): COc1ccccc1CNC(=O)c1oc2ccc(S(=O)(=O)N3CCCCCC3)cc2c1C [compound 245]
- IC50 [1]: 5 to 20 µM

Structure (SMILES): CC1CCN(S(=O)(=O)c2ccc3oc(C(=O)N4CCCCCC4)cc3c2)CC1 [compound 246]
- IC50 [1]: < 5 µM

Structure (SMILES): Cc1c(C(=O)NC2CCCC2)oc2ccc(S(=O)(=O)N3CC(C)CC(C)C3)cc12 (stereo not shown) [compound 247]
- IC50 [1]: < 5 µM

Structure (SMILES): O=C(NCCc1ccccc1)c1cc2cc(S(=O)(=O)N3CCCCCC3)ccc2[nH]1 [compound 248]
- IC50 [1]: < 5 µM

Structure (SMILES): Cc1c(C(=O)NCC2CCCO2)oc2ccc(S(=O)(=O)N3CCCCCC3)cc12 (stereo not shown) [compound 249]
- IC50 [1]: 5 to 20 µM

Structure (SMILES): CCN(CC)S(=O)(=O)c1ccc2oc(C(=O)NCc3ccccc3)c(C)c2c1 [compound 250]
- IC50 [1]: 5 to 20 µM

Structure (SMILES): CC1CC(C)CN(S(=O)(=O)c2ccc3[nH]c(C(N)=O)cc3c2)C1 (stereo not shown) [compound 251]
- IC50 [1]: 5 to 20 µM

Structure (SMILES): O=C(c1cc2cc(S(=O)(=O)N3CCCCCC3)ccc2[nH]1)N1CCC2(CC1)OCCO2 [compound 252]
- IC50: 5 to 20 µM

Structure (SMILES): Cc1c(C(=O)N2CCC3(CC2)OCCO3)[nH]c2ccc(S(=O)(=O)N3CC(C)CC(C)C3)cc12 (stereo not shown) [compound 253]
- IC50: < 5 µM

Structure (SMILES): CCCN(CC1CC1)C(=O)c1cc2cc(S(=O)(=O)N3CC(C)CC(C)C3)ccc2[nH]1 (stereo not shown) [compound 254]
- IC50 [1]: < 5 µM

Structure (SMILES): COc1ccc(CNS(=O)(=O)c2ccc3oc(C(=O)NC4CC4)c(C)c3c2)cc1 [compound 255]
- IC50 [1]: < 20 µM

Structure (SMILES): CCNC(=O)c1oc2ccc(S(=O)(=O)N3CCC(C)CC3)cc2c1C [compound 256]
- IC50 [1]: 5 to 20 µM

Structure (SMILES): Cc1c(C(=O)NC2CC2)oc2ccc(S(=O)(=O)N3CCCCC3)cc12 [compound 257]
- IC50 [1]: < 20 µM

Structure (SMILES): Cc1c(C(=O)NC2CCCC2)[nH]c2ccc(S(=O)(=O)N3CCCCCC3)cc12 [compound 258]
- IC50 [1]: 5 to 20 µM

Structure (SMILES): Cc1c(C(=O)N(C)C)oc2ccc(S(=O)(=O)N3CCOCC3)cc12 [compound 259]
- IC50 [1]: < 20 µM

Structure (SMILES): Cc1c(C(=O)NC2CCCC2)oc2ccc(S(=O)(=O)N3CCCCC3)cc12 [compound 260]
- IC50 [1]: < 5 µM

Structure (SMILES): Cc1c(C(=O)NC2CC2)oc2ccc(S(=O)(=O)N(C)c3ccccn3)cc12 [compound 261]
- IC50 [1]: < 20 µM

Structure (SMILES): Cc1c(C(=O)N(C(C)C)C(C)C)[nH]c2ccc(S(=O)(=O)N3CCC(C)CC3)cc12 [compound 262]
- IC50 [1]: < 5 µM

Structure (SMILES): Cc1c(C(=O)N(C(C)C)C(C)C)oc2ccc(S(=O)(=O)N3CCCC(C)C3)cc12 (stereo not shown) [compound 263]
- IC50 [1]: < 5 µM

Structure (SMILES): Cc1c(C(=O)NC(C)C)oc2ccc(S(=O)(=O)N3CCCC(F)(F)C3)cc12 [compound 264]
- IC50 [1]: < 20 µM

Structure (SMILES): CCNC(=O)c1cc2cc(S(=O)(=O)N3CCCCCC3)ccc2o1 [compound 265]
- IC50 [1]: 5 to 20 µM

Structure (SMILES): CC1CCN(S(=O)(=O)c2ccc3oc(C(=O)NCCC4CCOCC4)cc3c2)CC1 [compound 266]
- IC50 [1]: < 5 µM

Structure (SMILES): Cc1c(C(=O)NCc2ccccc2)oc2ccc(S(=O)(=O)N3CCOCC3)cc12 [compound 267]
- IC50 [1]: < 20 µM
